According to article PMC10743026, “Virtual Screening Technology for Two Novel Peptides in Soybean as Inhibitors of α-Amylase and α-Glucosidase” (Foods, 2023):
Like-named read-outs stand apart in the source and are kept apart here. Ends that are not written are not given here.

Key:
[1] = system: α-amylase; conditions: cited from earlier work
From the text: (§1) Peptides are obtained from the decomposition of proteins. Standard methods for preparing peptides in the food industry include enzymatic hydrolysis and microbial hydrolysis.

[2] = system: α-glucosidase; conditions: cited from earlier work
From the text: as §1

[3] = biological target: T1, porcine pancreatic α-amylase (Sus scrofa, UniProt P00690); assay: α-Amylase inhibition assay in vitro (starch/DNS); format: biochemical; conditions: synthetic peptides; enzyme 0.5 U/mL, starch 10 mg/mL, PBS pH 6.9–7.2; 20 min premix, 10 min at 37 °C; DNS, 540 nm; mean ± standard error of the mean, three parallels
T1 construct: purchased Sigma-Aldrich (St. Louis, MO, USA)
T1 sequence (P00690 16-511): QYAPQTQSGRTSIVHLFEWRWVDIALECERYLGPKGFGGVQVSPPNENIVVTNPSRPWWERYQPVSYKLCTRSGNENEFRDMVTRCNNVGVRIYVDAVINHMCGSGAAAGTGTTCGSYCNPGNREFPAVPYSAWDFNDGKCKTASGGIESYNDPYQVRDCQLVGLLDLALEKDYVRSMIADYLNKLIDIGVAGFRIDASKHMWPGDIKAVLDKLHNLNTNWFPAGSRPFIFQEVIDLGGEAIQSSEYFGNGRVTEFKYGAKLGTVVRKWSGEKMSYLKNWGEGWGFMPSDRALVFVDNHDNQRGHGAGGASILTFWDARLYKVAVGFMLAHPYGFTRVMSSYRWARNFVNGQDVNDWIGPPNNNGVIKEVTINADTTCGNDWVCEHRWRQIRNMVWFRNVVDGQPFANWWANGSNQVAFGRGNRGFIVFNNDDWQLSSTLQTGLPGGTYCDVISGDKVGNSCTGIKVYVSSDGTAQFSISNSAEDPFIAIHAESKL
From the text: p-Nitrophenyl-α-D-glucopyranoside (pNPG) and soy protein isolate were obtained from Mackiln (Shanghai, China). DL-dithiothreitol (DTT), iodoacetamide (IAA), formic acid (FA), acetonitrile (ACN), methanol, and porcine pancreatic amylase (PPA) (>10 units/mg) were acquired from Sigma-Aldrich (St. Louis, MO, USA). α-Glucosidase (from Saccharomyces cerevisiae, 26.5 units/mg) and trypsin (from porcine pancreas, 250 units/mg) were obtained from Yuanye Biotech (Shanghai, China). DNS solution was purchased from Rhawn (Shanghai, China). Oligopeptides were prepared with LifeTein (Beijing, China). High-performance liquid chromatography (HPLC)-grade acetonitrile, methanol, and formic acid were obtained from Merck (Darmstadt, Germany). The other chemicals were of analytical grade.
Methods refer to Admassu’s and make appropriate modifications. The starch solution (10 mg/mL), enzyme solution (0.5 U/mL), and soybean peptide solution at different concentrations (5, 10, 15, 20, 25 mg/mL) were prepared, the solvent was PBS (pH 6.9–7.2). […] The absorbance was measured at 540 nm, and the α-amylase inhibition ratio was calculated according to Formula (1):(1) α−Amylase Inhibition Ratio=1−A1−A2/A3−A4×100% where A1, A2, A3, and A4 are the absorbance values of the sample, sample blank, negative control, and blank, respectively.

[4] = peptide from egg albumin, ref [19]
[5] = peptide from Camellia seed cake, ref [15]

GGSK [oligopeptide isolated from Porphyra spp]
inhibition mode on α-amylase ([1]; peptides from Porphyra spp., ref [11]): could still bind with the substrate after binding with α-amylase

GPPGPA [identified from the skin collagen of the Chinese giant salamander]
inhibition type on α-glucosidase ([2]; peptide from skin collagen of Chinese giant salamander, ref [13]): competitive inhibitory effects

KLPGF [peptide segment identified in egg albumin]
IC50 [1, 4]: 120 µM
IC50 [2, 4]: 59.5 µM

LDQTPRVF
IC50 [3]: 3080 ± 150 µM

LLLLPSYSEF [identified from Camellia seed cake]
IC50 [2, 5]: 1110 µM
inhibition type on α-glucosidase [2, 5]: mixed inhibition

SRNPIYSN
IC50 [3]: 5580 ± 130 µM
